According to US8450313B2, “2,3-diaryl- or heteroaryl-substituted 1,1,1-trifluoro-2-hydroxypropyl compounds” (Hoffmann-La Roche Inc., priority 2009, dated 2013):

Biological target: T1, full length human recombinant glucocorticoid receptor (Homo sapiens, UniProt P04150)
T1 construct: It contains some partially purified full length human recombinant glucocorticoid receptor; purchased Panvera/Invitrogen PV4302
T1 sequence (P04150 1-777): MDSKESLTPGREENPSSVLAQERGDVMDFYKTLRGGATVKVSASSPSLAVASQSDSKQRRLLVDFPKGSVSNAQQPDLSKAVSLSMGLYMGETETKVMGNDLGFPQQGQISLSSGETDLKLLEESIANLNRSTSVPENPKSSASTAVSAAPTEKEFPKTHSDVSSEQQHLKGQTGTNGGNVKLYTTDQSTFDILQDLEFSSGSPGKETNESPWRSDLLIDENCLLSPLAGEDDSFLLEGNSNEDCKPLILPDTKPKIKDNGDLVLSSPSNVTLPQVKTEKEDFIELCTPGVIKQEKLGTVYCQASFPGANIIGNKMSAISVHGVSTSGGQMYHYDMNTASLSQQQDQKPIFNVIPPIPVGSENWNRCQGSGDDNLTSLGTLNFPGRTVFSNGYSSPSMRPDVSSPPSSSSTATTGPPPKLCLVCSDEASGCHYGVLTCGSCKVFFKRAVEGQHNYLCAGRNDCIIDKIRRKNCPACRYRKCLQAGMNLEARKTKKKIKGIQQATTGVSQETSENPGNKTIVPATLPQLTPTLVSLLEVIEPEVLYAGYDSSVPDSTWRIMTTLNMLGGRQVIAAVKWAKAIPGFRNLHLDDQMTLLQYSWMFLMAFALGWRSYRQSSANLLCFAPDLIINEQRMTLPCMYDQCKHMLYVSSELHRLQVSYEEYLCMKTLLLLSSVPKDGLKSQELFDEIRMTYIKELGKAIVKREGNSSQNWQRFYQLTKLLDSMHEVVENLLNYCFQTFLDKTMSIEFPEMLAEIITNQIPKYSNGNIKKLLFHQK
Assay: Glucocorticoid Receptor Binding Assay (Glucocorticoid Receptor Competitor Assay far red kit, fluorescence polarization)
Settings: competition with fluorescent GR ligand Fluormone GS Far Red, 3 hours at 22° C., pH 7.4; Ki calculated from IC50 by Cheng-Prusoff
Protocol: Glucocorticoid Receptor Binding Assay
The ability of the substances to bind to the glucocorticoid receptor was determined with the help of a commercial Glucocorticoid Receptor Competitor Assay far red kit provided by Panvera/Invitrogen (PV4302). This kit is used as provided by the supplier. It contains some partially purified full length human recombinant glucocorticoid receptor, a coactivator related GR stabilizing peptide, a tight-binding fluorescent GR ligand Fluormone™ GS Far Red as labeled tracer and a screening buffer. All reagents are prepared and the assay is run according to the recommendations of the kit manufacturer.
Briefly, the GR stabilizing peptide and the human recombinant glucocorticoid receptor are both diluted with the screening buffer (pH 7.4) and are gently mixed (no vortexing) just before the assay and kept on ice until use. The fluorescent-labeled ligand is also diluted with the screening buffer just before the assay and kept on ice until use. The substances to test are pre-diluted in pure DMSO then some water is added to get an intermediate 4.2% DMSO stock solution. Ten microliter of the intermediate stock solution is gently mixed with 5 μA of diluted fluorescent-labeled ligand and 5 μl of diluted human recombinant glucocorticoid receptor in a 384-well plate (low volume, ultraclear, glass plate from Greiner ref 788896). The plate is centrifuged, sealed and incubated for 3 hours at 22° C. in the dark. The polarized fluorescence is measured with a Zeiss-HTS reader or any equivalent equipment (610-660 nm).
All compounds were tested to determine IC50 in a serial dilution experiment. The concentration at which 50% inhibition of the fluorescent GR ligand Fluormone™ GS Far Red is obtained (the IC50) is determined after fitting with a sigmoidal dose-response model of a plot of the logarithm of the concentration versus percent inhibition measured for the different concentrations. Ki's were calculated from IC50 based on Cheng-Prusoff equation (Cheng, Y, Prusoff, W H (1973) Biochem Pharmacol 22, 3099-3108): Ki=IC50/[1+D/Kd] wherein D is the concentration of the fluorescent ligand and Kd is the binding constant for the fluorescent ligand binding to the receptor under the conditions used in the competition experiment.

Ki [nM]	Structure (SMILES)
7.5	C[C@@H](c1ccc(-c2ccc(CCC(=O)O)cc2)cc1Cl)[C@](O)(c1ccc2c(c1)N(C)C(=O)CO2)C(F)(F)F (relative stereo) [Example 29, 3-{3′-Chloro-4′-[3,3,3-trifluoro-2-hydroxy-1-methyl-2-(4-methyl-3-oxo-3,4-dihydro-2H-benzo[1,4]oxazin-6-yl)-propyl]-biphenyl-4-yl}-propionic acid]
2	COC(=O)c1ccc(-c2ccc([C@H](C)[C@](O)(c3ccc4c(c3)N(C)C(=O)CO4)C(F)(F)F)c(Cl)c2)cc1Cl (relative stereo) [Example 30, 3,3′-Dichloro-4′-[3,3,3-trifluoro-2-hydroxy-1-methyl-2-(4-methyl-3-oxo-3,4-dihydro-2H-benzo[1,4]oxazin-6-yl)-propyl]-biphenyl-4-carboxylic acid methyl ester]
3.1	C[C@@H](c1ccc(-c2ccc(C(=O)O)c(Cl)c2)cc1Cl)[C@](O)(c1ccc2c(c1)N(C)C(=O)CO2)C(F)(F)F (relative stereo) [Example 31, 3,3′-Dichloro-4′-[3,3,3-trifluoro-2-hydroxy-1-methyl-2-(4-methyl-3-oxo-3,4-dihydro-2H-benzo[1,4]oxazin-6-yl)-propyl]-biphenyl-4-carboxylic acid]
1.3	C[C@@H](c1ccc(-c2ccc(F)c(C(=O)O)c2)cc1Cl)[C@](O)(c1ccc2c(c1)N(C)C(=O)CO2)C(F)(F)F (relative stereo) [Example 32, 3′-Chloro-4-fluoro-4′-[3,3,3-trifluoro-2-hydroxy-1-methyl-2-(4-methyl-3-oxo-3,4-dihydro-2H-benzo[1,4]oxazin-6-yl)-propyl]-biphenyl-3-carboxylic acid]
17.3	COC(=O)c1ccc(-c2ccc([C@H](C)[C@](O)(c3ccc4c(c3)N(C)C(=O)CO4)C(F)(F)F)c(Cl)c2)c(F)c1 (relative stereo) [Example 33, 3′-Chloro-2-fluoro-4′-[3,3,3-trifluoro-2-hydroxy-1-methyl-2-(4-methyl-3-oxo-3,4-dihydro-2H-benzo[1,4]oxazin-6-yl)-propyl]-biphenyl-4-carboxylic acid methyl ester]
2.6	COC(=O)c1ccc(-c2ccc([C@H](C)[C@](O)(c3ccc4c(c3)N(C)C(=O)CO4)C(F)(F)F)c(Cl)c2)cc1OC (relative stereo) [Example 35, 3′-Chloro-3-methoxy-4′-[3,3,3-trifluoro-2-hydroxy-1-methyl-2-(4-methyl-3-oxo-3,4-dihydro-2H-benzo[1,4]oxazin-6-yl)-propyl]-biphenyl-4-carboxylic acid methyl ester]
6.5	COc1cc(-c2ccc([C@H](C)[C@](O)(c3ccc4c(c3)N(C)C(=O)CO4)C(F)(F)F)c(Cl)c2)ccc1C(=O)O (relative stereo) [Example 36, 3′-Chloro-3-methoxy-4′-[3,3,3-trifluoro-2-hydroxy-1-methyl-2-(4-methyl-3-oxo-3,4-dihydro-2H-benzo[1,4]oxazin-6-yl)-propyl]-biphenyl-4-carboxylic acid]
6.6	C[C@@H](c1ccc(-c2ccc(CC(=O)O)cc2)cc1Cl)[C@](O)(c1ccc2c(c1)N(C)C(=O)CO2)C(F)(F)F (relative stereo) [Example 37, {3′-Chloro-4′-[3,3,3-trifluoro-2-hydroxy-1-methyl-2-(4-methyl-3-oxo-3,4-dihydro-2H-benzo[1,4]oxazin-6-yl)-propyl]-biphenyl-4-yl}-acetic acid]
1.8	C[C@@H](c1ccc(-c2cc(C(=O)O)ccc2F)cc1Cl)[C@](O)(c1ccc2c(c1)N(C)C(=O)CO2)C(F)(F)F (relative stereo) [Example 38, 3′-Chloro-6-fluoro-4′-[3,3,3-trifluoro-2-hydroxy-1-methyl-2-(4-methyl-3-oxo-3,4-dihydro-2H-benzo[1,4]oxazin-6-yl)-propyl]-biphenyl-3-carboxylic acid]
